Measurements published in ChEMBL document CHEMBL1201862, “PubChem BioAssay data set” (2004).
One block for each compound: values may come before it. Active and inactive are the calls of the source.

Tests used:
[1] = biological target: T1, Sentrin-specific protease 7 (Homo sapiens, UniProt Q9BQF6); assay type: functional;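 also: Luminescence-based dose-response confirmation of ultra-high-throughput screening hits, measuring inhibition of SENP7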
T1 sequence (Q9BQF6 whole entry): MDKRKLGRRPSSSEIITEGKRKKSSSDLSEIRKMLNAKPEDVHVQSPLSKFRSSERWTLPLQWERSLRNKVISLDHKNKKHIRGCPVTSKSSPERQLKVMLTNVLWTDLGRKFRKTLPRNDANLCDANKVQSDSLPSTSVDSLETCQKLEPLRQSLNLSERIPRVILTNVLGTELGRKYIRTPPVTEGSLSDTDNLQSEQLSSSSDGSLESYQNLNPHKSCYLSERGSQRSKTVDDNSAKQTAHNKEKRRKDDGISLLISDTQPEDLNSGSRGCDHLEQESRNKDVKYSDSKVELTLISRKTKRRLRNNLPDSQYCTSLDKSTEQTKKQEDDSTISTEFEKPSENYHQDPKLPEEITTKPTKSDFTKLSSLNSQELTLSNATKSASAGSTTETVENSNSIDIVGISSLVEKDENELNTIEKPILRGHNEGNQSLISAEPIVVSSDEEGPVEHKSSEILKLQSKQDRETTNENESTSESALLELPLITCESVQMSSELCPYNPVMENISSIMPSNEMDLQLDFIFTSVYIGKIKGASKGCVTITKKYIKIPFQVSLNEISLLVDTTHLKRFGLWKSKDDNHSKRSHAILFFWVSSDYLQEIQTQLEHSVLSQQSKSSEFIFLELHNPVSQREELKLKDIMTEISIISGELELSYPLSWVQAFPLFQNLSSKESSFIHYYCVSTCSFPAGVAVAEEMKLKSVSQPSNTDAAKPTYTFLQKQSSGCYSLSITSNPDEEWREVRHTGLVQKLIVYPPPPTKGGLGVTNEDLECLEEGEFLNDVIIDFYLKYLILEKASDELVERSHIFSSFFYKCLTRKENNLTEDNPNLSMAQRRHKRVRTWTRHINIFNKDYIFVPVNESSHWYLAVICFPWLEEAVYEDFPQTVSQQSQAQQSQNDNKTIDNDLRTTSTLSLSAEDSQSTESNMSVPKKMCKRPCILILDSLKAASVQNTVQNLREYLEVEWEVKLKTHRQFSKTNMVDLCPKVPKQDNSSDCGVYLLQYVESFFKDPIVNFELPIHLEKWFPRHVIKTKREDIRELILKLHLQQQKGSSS

[2] = biological target: T2, Sentrin-specific protease 6 (Homo sapiens, UniProt Q9GZR1); assay type: functional;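 also: Luminescence-based dose-response confirmatory assay of SENP6 inhibition, following up an ultra-high-throughput screen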
T2 sequence (Q9GZR1 whole entry): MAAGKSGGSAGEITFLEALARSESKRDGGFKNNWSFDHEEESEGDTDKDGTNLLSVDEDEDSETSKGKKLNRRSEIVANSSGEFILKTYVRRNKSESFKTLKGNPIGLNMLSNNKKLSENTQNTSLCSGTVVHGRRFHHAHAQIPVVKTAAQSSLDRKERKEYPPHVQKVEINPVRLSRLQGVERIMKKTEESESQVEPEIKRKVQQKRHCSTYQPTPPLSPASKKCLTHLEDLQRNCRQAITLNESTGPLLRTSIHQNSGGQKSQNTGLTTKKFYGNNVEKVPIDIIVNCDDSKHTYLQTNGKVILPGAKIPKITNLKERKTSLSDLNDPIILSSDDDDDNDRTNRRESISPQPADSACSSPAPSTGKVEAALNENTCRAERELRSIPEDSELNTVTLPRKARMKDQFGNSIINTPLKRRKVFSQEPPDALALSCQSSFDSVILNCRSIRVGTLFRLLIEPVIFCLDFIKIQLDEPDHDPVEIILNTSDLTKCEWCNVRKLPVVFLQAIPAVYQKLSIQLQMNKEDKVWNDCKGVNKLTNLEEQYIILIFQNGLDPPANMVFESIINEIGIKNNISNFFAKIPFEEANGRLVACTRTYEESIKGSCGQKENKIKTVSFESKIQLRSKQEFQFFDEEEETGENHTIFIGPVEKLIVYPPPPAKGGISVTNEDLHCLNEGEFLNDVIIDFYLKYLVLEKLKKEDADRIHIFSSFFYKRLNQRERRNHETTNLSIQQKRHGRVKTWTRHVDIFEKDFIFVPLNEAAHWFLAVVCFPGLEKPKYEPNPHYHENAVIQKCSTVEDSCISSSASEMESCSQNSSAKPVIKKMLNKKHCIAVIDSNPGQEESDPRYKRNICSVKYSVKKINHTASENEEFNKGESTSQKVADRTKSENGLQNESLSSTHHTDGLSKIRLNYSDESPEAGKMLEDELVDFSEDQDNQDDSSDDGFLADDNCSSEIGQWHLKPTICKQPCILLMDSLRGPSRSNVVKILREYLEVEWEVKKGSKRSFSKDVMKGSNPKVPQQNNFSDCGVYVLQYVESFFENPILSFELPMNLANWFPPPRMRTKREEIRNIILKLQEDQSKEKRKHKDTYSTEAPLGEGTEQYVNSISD

[3] = biological target: T3, Sentrin-specific protease 8 (Homo sapiens, UniProt Q96LD8); assay type: functional;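 also: luminescence read-out of SENP8 inhibition, dose-response confirmation following an ultra-high-throughput screen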
T3 sequence (Q96LD8 whole entry): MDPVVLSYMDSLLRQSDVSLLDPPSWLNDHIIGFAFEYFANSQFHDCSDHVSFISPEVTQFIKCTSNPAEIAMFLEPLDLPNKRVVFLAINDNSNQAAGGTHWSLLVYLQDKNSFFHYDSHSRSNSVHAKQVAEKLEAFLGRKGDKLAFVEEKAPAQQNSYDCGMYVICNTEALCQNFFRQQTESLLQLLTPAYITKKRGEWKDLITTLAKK

Caspase-3 = biological target: T4, Caspase-3 (Homo sapiens, UniProt P42574); assay type: functional;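 also: Dose-response selectivity test against caspase-3 for candidate inhibitors of sentrin-specific proteases (SENPs)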
T4 sequence (P42574 whole entry): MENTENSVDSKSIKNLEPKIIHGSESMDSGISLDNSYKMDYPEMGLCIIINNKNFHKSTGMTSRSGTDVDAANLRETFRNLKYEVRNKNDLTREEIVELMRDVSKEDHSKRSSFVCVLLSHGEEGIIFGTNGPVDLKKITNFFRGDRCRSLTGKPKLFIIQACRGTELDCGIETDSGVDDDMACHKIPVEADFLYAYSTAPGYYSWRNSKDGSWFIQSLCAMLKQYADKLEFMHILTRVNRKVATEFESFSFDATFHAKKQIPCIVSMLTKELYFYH

[4] = biological target: T5, Apoptotic protease-activating factor 1 (Homo sapiens, UniProt O14727); assay type: functional
T5 sequence (O14727 whole entry): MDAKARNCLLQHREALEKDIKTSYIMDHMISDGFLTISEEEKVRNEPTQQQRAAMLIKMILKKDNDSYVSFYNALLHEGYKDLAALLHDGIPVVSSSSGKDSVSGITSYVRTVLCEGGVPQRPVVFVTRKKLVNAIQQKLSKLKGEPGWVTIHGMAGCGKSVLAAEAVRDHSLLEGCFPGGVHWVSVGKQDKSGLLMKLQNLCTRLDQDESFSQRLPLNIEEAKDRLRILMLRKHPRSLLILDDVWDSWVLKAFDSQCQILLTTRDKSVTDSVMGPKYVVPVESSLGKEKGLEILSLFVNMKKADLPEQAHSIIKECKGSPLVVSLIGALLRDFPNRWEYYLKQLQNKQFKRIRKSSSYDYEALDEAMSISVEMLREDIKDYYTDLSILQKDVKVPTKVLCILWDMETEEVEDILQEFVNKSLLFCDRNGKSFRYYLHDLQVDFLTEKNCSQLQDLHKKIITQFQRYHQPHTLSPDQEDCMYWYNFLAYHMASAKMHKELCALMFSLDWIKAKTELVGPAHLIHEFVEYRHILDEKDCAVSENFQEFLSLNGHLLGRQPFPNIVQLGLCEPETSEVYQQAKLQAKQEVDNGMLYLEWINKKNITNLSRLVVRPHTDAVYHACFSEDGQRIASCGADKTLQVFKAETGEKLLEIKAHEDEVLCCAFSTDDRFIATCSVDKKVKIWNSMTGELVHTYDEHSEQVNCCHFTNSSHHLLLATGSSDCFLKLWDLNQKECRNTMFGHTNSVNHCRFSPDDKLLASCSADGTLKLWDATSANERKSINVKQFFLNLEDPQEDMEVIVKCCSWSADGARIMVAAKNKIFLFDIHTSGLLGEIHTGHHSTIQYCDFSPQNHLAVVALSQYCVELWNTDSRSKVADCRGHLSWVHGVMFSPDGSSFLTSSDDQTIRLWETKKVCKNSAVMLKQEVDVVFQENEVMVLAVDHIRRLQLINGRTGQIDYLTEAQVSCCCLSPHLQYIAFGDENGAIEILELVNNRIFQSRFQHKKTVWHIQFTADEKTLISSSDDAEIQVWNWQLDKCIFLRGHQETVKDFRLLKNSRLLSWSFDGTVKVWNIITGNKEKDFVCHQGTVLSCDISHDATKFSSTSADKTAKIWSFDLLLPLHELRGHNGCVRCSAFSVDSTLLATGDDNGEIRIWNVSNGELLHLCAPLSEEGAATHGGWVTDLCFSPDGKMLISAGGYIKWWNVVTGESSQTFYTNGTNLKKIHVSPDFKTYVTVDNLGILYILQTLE

[5] = biological target: T6, Type-1 angiotensin II receptor (Homo sapiens, UniProt P30556); assay: AT1 receptor antagonists, dose response, selectivity assay for APJ receptor antagonist project, cell-based, uHTS hits (AID 463214); assay type: functional;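 also: antagonist potency against angiotensin II stimulated AT1 response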
T6 sequence (P30556 whole entry): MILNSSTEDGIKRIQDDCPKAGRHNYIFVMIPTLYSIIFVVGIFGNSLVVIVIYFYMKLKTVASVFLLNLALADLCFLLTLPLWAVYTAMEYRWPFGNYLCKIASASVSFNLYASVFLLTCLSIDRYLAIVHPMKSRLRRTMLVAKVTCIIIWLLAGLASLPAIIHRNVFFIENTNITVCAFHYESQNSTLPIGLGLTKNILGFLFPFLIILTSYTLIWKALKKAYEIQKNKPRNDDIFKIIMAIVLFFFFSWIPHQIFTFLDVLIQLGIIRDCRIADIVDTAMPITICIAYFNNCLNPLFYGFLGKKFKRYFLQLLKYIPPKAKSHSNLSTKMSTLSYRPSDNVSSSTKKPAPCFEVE

Beta-galactosidase = Beta-galactosidase (Escherichia coli, UniProt Q8VNN2); assay: PubChem AID 485352; assay type: functional
Sequence of Beta-galactosidase (Q8VNN2 whole entry): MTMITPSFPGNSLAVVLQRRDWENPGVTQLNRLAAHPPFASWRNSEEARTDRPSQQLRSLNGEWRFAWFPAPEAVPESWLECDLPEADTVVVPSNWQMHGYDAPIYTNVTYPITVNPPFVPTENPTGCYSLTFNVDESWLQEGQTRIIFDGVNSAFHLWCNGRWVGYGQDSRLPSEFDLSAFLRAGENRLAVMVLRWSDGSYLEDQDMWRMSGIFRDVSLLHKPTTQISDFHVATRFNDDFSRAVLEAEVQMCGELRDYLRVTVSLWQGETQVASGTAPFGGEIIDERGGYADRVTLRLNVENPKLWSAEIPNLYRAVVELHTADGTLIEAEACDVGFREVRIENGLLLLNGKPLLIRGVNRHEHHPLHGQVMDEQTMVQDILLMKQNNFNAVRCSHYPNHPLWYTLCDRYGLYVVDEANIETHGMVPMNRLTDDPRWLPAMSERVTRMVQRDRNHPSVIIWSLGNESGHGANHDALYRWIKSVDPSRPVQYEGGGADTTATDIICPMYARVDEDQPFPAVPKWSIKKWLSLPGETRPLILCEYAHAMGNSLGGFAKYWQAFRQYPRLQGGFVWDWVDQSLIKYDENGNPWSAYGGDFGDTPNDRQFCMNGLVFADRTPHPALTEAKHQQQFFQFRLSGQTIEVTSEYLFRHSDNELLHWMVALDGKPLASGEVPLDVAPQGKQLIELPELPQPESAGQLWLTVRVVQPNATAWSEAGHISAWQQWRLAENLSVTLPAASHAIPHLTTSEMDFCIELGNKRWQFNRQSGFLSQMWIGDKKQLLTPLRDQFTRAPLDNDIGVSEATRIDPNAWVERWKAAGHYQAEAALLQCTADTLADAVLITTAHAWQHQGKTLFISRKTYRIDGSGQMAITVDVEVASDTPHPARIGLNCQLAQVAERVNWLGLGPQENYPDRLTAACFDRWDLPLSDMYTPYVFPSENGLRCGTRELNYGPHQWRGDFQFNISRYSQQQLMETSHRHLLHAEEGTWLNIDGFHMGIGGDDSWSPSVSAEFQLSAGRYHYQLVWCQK

Cytochrome P450 2C9 = Cytochrome P450 2C9 (Homo sapiens, UniProt P11712)
Sequence of Cytochrome P450 2C9 (P11712 whole entry): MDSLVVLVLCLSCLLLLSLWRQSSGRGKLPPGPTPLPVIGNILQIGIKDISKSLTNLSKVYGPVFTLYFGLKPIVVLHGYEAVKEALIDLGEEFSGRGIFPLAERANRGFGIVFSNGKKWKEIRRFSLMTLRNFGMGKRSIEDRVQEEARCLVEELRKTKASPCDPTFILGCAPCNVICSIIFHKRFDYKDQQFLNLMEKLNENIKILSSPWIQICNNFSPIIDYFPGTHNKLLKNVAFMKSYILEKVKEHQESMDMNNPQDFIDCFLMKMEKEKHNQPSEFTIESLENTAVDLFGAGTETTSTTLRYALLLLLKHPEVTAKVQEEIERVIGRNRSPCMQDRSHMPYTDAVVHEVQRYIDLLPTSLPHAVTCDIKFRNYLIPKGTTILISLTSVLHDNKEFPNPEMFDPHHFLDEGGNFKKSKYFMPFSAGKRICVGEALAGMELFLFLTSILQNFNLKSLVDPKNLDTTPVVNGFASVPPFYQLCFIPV

Cytochrome P450 1A2 = biological target: T7, Cytochrome P450 1A2 (Homo sapiens, UniProt P05177);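 also: PubChem cytochrome P450 panel assay, CYP1A2 panel member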
T7 sequence (P05177 whole entry): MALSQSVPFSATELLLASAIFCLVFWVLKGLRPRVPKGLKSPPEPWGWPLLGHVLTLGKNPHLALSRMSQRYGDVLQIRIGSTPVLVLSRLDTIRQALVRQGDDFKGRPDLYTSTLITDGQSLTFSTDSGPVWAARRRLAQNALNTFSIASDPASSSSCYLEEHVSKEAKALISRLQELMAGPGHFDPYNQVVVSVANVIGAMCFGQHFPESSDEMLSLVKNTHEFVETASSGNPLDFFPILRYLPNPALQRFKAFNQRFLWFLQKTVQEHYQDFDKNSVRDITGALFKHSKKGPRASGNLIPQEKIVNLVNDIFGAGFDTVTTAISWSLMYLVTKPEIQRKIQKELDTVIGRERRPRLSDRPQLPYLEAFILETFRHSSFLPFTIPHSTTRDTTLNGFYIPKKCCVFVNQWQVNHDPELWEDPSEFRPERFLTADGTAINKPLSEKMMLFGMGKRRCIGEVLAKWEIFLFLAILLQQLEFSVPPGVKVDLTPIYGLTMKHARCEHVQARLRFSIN

[6] = biological target: T8, Carboxy-terminal domain RNA polymerase II polypeptide A small phosphatase 1 (Homo sapiens, UniProt Q9GZU7); assay: inhibitors of CTDSP1, concentration-response testing, biochemical assay, absorbance-based, actives from ultra-high-throughput screening (AID 540297); assay type: functional
T8 sequence (Q9GZU7 whole entry): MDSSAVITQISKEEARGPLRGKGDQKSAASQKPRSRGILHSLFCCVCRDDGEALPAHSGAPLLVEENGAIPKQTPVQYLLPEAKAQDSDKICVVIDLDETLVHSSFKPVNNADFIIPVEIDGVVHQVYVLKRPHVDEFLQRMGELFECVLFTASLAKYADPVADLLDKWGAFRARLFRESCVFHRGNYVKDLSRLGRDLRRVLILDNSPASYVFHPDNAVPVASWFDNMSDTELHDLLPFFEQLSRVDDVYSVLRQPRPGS

[7] = biological target: DNA dC->dU-editing enzyme APOBEC-3A (Homo sapiens, UniProt P31941); assay: Dose Response confirmation of small molecule APOBEC3A DNA Deaminase Inhibitors via a fluorescence-based single-stranded DNA deaminase assay. [Related pubchem assays (depositor defined):AID493011, AID493024]; assay type: functional
Sequence of DNA dC->dU-editing enzyme APOBEC-3A (P31941 whole entry): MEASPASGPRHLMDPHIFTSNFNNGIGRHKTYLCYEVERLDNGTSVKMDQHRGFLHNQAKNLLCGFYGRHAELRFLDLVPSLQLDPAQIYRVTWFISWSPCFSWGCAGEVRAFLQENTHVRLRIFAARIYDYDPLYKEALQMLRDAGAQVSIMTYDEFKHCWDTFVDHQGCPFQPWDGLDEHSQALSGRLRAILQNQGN

[8] = biological target: DNA dC->dU-editing enzyme APOBEC-3G (Homo sapiens, UniProt Q9HC16); assay type: functional;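 also: Dose-response counterscreen measuring inhibition of APOBEC3G DNA deaminase activity, run while confirming APOBEC3A inhibitors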
Sequence of DNA dC->dU-editing enzyme APOBEC-3G (Q9HC16 whole entry): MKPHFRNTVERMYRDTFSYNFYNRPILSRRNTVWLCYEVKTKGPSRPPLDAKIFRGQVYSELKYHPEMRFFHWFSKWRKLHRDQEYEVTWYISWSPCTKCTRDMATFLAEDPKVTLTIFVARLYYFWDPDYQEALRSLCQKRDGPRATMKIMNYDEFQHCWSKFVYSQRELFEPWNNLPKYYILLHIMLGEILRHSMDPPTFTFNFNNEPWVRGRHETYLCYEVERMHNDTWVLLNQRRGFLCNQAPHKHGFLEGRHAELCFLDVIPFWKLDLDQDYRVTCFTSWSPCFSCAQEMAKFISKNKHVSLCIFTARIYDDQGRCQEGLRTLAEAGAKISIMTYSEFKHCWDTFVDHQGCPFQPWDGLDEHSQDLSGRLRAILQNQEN

[9] = biological target: Voltage-dependent T-type calcium channel subunit alpha-1H (Homo sapiens, UniProt O95180); assay type: functional;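 also: channel activity triggered by adding a high calcium stimulation buffer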
Sequence of Voltage-dependent T-type calcium channel subunit alpha-1H (O95180 whole entry): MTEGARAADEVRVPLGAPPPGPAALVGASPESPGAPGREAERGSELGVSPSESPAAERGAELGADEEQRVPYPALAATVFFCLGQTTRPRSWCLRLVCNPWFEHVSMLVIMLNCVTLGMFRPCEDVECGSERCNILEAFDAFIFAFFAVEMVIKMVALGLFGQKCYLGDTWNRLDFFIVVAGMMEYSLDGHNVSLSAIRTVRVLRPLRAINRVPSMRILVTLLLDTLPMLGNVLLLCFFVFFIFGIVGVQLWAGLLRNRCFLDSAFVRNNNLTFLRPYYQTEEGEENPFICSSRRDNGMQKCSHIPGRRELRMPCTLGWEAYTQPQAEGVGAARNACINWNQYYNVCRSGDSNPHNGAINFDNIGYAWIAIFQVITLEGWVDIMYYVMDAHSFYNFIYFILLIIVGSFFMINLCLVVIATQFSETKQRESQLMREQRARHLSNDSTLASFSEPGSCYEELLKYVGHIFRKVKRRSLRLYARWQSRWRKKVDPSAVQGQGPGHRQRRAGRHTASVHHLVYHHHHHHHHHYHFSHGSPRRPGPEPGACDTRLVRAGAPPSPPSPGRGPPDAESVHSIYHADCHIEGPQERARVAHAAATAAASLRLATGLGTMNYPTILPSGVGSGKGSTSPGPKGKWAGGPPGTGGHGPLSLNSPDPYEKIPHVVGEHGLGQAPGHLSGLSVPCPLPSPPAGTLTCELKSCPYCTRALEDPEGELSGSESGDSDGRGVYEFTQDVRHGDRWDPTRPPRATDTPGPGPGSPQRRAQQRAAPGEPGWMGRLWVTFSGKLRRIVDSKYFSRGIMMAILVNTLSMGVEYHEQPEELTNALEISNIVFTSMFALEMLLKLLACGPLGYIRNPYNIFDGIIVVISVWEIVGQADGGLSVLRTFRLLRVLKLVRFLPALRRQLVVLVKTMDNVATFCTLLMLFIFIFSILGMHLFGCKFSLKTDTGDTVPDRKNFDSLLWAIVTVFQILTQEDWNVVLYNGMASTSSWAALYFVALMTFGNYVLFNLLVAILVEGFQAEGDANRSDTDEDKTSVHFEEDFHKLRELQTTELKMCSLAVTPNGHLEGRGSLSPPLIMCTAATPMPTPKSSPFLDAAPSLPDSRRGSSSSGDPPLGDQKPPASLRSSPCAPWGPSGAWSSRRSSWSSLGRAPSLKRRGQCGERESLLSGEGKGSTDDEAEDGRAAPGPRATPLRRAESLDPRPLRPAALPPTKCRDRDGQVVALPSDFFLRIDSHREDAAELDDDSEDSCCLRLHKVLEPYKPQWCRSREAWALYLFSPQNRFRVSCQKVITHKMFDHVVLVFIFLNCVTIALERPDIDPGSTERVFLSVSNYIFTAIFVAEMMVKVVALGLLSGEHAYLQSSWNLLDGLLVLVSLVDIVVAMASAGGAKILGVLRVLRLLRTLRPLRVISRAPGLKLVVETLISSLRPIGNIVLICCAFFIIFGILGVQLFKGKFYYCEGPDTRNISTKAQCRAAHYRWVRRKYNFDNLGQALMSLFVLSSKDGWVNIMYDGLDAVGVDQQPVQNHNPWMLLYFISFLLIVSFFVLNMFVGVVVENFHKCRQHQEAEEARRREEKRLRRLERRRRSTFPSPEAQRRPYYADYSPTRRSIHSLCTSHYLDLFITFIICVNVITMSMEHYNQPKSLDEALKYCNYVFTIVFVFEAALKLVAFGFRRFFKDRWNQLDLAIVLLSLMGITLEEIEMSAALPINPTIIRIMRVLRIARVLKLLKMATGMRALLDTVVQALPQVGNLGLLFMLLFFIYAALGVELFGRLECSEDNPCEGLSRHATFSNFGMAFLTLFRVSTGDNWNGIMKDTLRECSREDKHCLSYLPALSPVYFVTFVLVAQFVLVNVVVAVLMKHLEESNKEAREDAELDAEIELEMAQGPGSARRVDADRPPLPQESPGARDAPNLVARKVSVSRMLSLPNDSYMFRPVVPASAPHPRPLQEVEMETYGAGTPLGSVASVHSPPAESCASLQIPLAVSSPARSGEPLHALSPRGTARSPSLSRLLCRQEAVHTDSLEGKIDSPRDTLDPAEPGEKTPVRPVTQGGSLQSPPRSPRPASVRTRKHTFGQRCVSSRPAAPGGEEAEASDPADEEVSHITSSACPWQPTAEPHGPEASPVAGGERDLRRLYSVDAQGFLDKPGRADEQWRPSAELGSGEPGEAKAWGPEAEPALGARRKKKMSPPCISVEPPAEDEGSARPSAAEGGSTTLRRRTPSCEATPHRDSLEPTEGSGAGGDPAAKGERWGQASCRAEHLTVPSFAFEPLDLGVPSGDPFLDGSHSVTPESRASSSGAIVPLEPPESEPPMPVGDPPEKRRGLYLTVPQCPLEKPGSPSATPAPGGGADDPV

SMILES: Nn1c(SCc2ccccc2)nc2c(cnn2-c2ccccc2)c1=O
IC50 [1]: 11.4 µM (active) | IC50 [2]: > 100 µM (inactive) | IC50 [3]: > 100 µM (inactive) | IC50 (Caspase-3): 36.1 µM (active)

SMILES: Cc1ccc2nc(C)cc(C(=O)OCC(=O)c3ccc(Cl)c([N+](=O)[O-])c3)c2c1
IC50 [5]: 13.2 µM (active) | EC50 (Beta-galactosidase): > 40 µM (inactive)

SMILES: Cc1cc(C)cc(-n2nnnc2SCC(=O)Nc2nc(-c3ccc(Cl)cc3)cs2)c1
AC50 (Cytochrome P450 2C9): inconclusive | AC50 (Cytochrome P450 1A2): 7.08 µM (inconclusive)

SMILES: Cc1cccc(NC2=c3cccc(Cl)c3=NC2=O)c1
IC50 [5]: > 40 µM (not active) | EC50 (Beta-galactosidase): > 40 µM (inactive)

SMILES: C[N+]1(C2CCC3CCCC2C3O)CCCCC1 (centres undefined)
IC50 [6]: 6.61 µM (active) | IC50 [7]: 2.42 µM (active) | IC50 [8]: 2.69 µM (active)

Now from value to compound, other results behind:

IC50 [4]: 22.9 µM (active)
SMILES: O=C1NNC(c2ccccc2)=N/C1=C\c1ccc(Cl)cc1

AC50 (Cytochrome P450 2C9): inconclusive | EC50 [9]: 6.85 µM (active)
SMILES: CCN(CC)c1ccc(/C=C/c2nc3ccccc3s2)cc1

IC50 [1]: 6.95 µM (active) | IC50 [2]: 21.1 µM (active) | IC50 (Caspase-3): 21.1 µM (active)
SMILES: O=C(Cn1cc(SCc2ccc(F)cc2)c2ccccc21)N1CCOCC1
IC50 [3]: 23.2 µM (active)

IC50 [5]: 13.7 µM (active) | EC50 (Beta-galactosidase): > 40 µM (inactive)
SMILES: Nc1c(N2CCCC2)c2ccccc2oc1=O

AC50 (Cytochrome P450 2C9): inconclusive | AC50 (Cytochrome P450 1A2): 25.1 µM (inconclusive)
SMILES: O=C(CO)N/N=C/c1ccccc1F
